The conditions of experiment [1]: cited from earlier work.
Experiment [2] relates to groupe de huit goûteurs expérimentés. As to the kind of experiment: Sweetening power judged by a panel of eight experienced tasters against a sucrose reference solution. It is filed as in vivo. As to conditions: weight basis; for Pouvoir édulcorant: Table II, relative to a 2 % sucrose solution; for pouvoir édulcorant, sur une base pondérale: approximate. A digest of the protocol:
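Panel of eight experienced tasters compared aqueous solutions of compound at varying concentrations with a sucrose reference at 2 %, sometimes 5 % and 10 %. Sweetening power is the weight ratio of sucrose to compound at equal sweetness intensity, as judged by a majority of tasters, and depends on the reference concentration.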

[3] abbreviates: by comparison with a 2 % sucrose solution.
[4] abbreviates: by comparison with a 5 % sucrose solution.
Setting [5] is: by comparison with a 10 % sucrose solution.

Peptide text beside a SMILES is read from it.

Cyclamate de sodium: the “Pouvoir sucrant (saccharose = 1)” value in experiment [1] is on record as 30.
As for `C[C@@H](NC(=O)[C@@H](N)CC(=O)O)C(=O)NC1C(C)(C)SC1(C)C` [Alitame], the “Pouvoir sucrant (saccharose = 1)” value in experiment [1] was 2000.
Turning to `C=C1C[C@@]23CC[C@H]4[C@@](C)(CCC[C@@]4(C)C(=O)O[C@@H]4O[C@H](CO)[C@@H](O)[C@H](O)[C@H]4O)[C@@H]2CC[C@]1(O[C@@H]1O[C@H](CO)[C@@H](O)[C@H](O)[C@H]1O[C@@H]1O[C@H](CO)[C@@H](O)[C@H](O)[C@H]1O)C3` [Stévioside], the “Pouvoir sucrant (saccharose = 1)” value in experiment [1] is 300.
Turning to `OC[C@H]1O[C@H](O[C@]2(CCl)O[C@H](CCl)[C@@H](O)[C@@H]2O)[C@H](O)[C@@H](O)[C@H]1Cl` [Trichlorogalactosucrose], the “Pouvoir sucrant (saccharose = 1)” value in experiment [1] is listed as 2000.
For the compound `CC1=CC(=O)NS(=O)(=O)O1` [Acésulfame-K], in experiment [1], the “Pouvoir sucrant (saccharose = 1)” value was 200.
For the compound `O=C1NS(=O)(=O)c2ccccc21` [Saccharine], in experiment [1], the “Pouvoir sucrant (saccharose = 1)” value is listed as 400.
Take `COC(=O)[C@H](Cc1ccccc1)NC(=O)[C@@H](N)CC(=O)O` [Aspartame] (H-Asp-Phe-OMe): the “Pouvoir sucrant (saccharose = 1)” value in experiment [1] is reported as 200.
On to `OC[C@@H](O)[C@H](O)[C@@H](O)CO` [Xylitol], for which the “Pouvoir sucrant (saccharose = 1)” value in experiment [1] is 1.
In experiment [2], `Cc1cc(C)cc(N=C(NCC(=O)O)N[C@@H](C)c2ccccc2)c1` [Exemple 25, acide N-[N-(S)-α-méthylbenzylamino (3,5-diméthylphénylimino)méthyl]-2-aminoéthanoïque] returned a Pouvoir édulcorant of 30000. Moreover, the “pouvoir édulcorant, sur une base pondérale” value in experiment [2] (setting [3]) was ~30 000 fois celui du saccharose.
In turn, `N#Cc1ccc(N=C(NCC(=O)O)NCc2ccccc2)cc1` [Exemple 52, acide N-[N-benzylamino(4-cyanophénylimino)méthyl]-2-aminoéthanoïque] returned a Pouvoir édulcorant in experiment [2] of 30000. For the same compound, the “pouvoir édulcorant, sur une base pondérale” value was ~30 000 fois celui du saccharose in experiment [2] (setting [3]), ~27 000 fois celui du saccharose in experiment [2] (setting [4]) and ~22 000 fois celui du saccharose in experiment [2] (setting [5]).
`COc1ccc(CCC(=O)c2c(O)cc(O[C@@H]3O[C@H](CO)[C@@H](O)[C@H](O)[C@H]3O[C@@H]3O[C@@H](C)[C@H](O)[C@@H](O)[C@H]3O)cc2O)cc1O` [Néohespéridine dihydrochalcone]: the “Pouvoir sucrant (saccharose = 1)” value in experiment [1] is 1000.
For `C[C@H](NC(=Nc1cccc(C#N)c1)NCC(=O)O)c1ccccc1` [Exemple 7, acide N-[N-(S)-α-méthylbenzylamino (3-cyanophénylimino)méthyl]-2-aminoéthanoïque], the “Pouvoir édulcorant” value in experiment [2] was 5 500. The “pouvoir édulcorant, sur une base pondérale” value in experiment [2] (setting [3]) is given as ~5 500 fois celui du saccharose.
In experiment [2], `N#Cc1ccc(N=C(NCC(=O)O)NC2CCCCC2)cc1` [Exemple 43, acide N-[N-cyclohexylamino(4-cyanophénylimino)méthyl]-2-aminoéthanoïque] yielded a Pouvoir édulcorant of 12000. In addition, the “pouvoir édulcorant, sur une base pondérale” value in experiment [2] (setting [3]) is reported as ~12 000 fois celui du saccharose; in experiment [2] (setting [4]), ~10 500 fois celui du saccharose; in experiment [2] (setting [5]), ~8 500 fois celui du saccharose.
On to `O=C(O)CNC(=Nc1ccccc1)Nc1ccccc1` [Exemple 40, acide N-[N-phénylamino(phénylimino)méthyl]-2-aminoéthanoique], for which the “Pouvoir édulcorant” value in experiment [2] is given as 500. The “pouvoir édulcorant, sur une base pondérale” value in experiment [2] (setting [3]) was about 500 fois celui du saccharose.
Glycyrrhizine: the “Pouvoir sucrant (saccharose = 1)” value in experiment [1] is 50.
In experiment [2], `N#Cc1ccc(NC(=NC2CCCCCCC2)NCC(=O)O)cc1` [Exemple 47, acide N-[N-cyclooctylamino-(4-cyanophénylimino)méthyl]-2-aminoéthanoïque] had a Pouvoir édulcorant of 170000. Besides, the “pouvoir édulcorant, sur une base pondérale” value in experiment [2] (setting [3]) was ~170 000 fois celui du saccharose; in experiment [2] (setting [4]) it was ~130 000 fois celui du saccharose; in experiment [2] (setting [5]), ~100 000 fois celui du saccharose.
`CSc1ccc(N=C(NCC(=O)O)N[C@@H](C)c2ccccc2)cc1` [Exemple 21, acide N-[N-(S)-a-méthylbenzylamino (4-méthylmercaptophénylimino)méthyl)-2-aminoéthanoïque] yielded a Pouvoir édulcorant in experiment [2] of 1200. Further, the pouvoir édulcorant, sur une base pondérale in experiment [2] (setting [3]) is about 1200 times sucrose.
As for `COc1ccc(N=C(NCC(=O)O)N[C@@H](C)c2ccccc2)cc1` [Exemple 19, acide N-[N-(S)-α-méthylbenzylamino (4-méthoxyphénylimino)méthyl]-2-aminoéthanoïque], in experiment [2], the “Pouvoir édulcorant” value is on record as 2 100. This compound showed a pouvoir édulcorant, sur une base pondérale in experiment [2] (setting [3]) of about 2100 times sucrose.
On to `COC(=O)c1ccc(N=C(NCC(=O)O)N[C@@H](C)c2ccccc2)cc1` [Exemple 16, acide N-[N-(S)-α-méthylbenzylamino (4-méthoxycarbonylphénylimino)méthyl]-2-aminoéthanoïque], for which the “Pouvoir édulcorant” value in experiment [2] worked out at 700. Besides, in experiment [2] (setting [3]), the “pouvoir édulcorant, sur une base pondérale” value is about 700 fois celui du saccharose.
In the case of `O=C(O)CNC(=Nc1cc(Cl)cc(Cl)c1)NN1CCOCC1` [Exemple 76, acide N-[N-morpholinoamino (3,5-dichlorophénylimino)méthyl]-2-aminoéthanoïque], the “Pouvoir édulcorant” value in experiment [2] is 500. Moreover, in experiment [2] (setting [3]), the “pouvoir édulcorant, sur une base pondérale” value is about 500 fois celui du saccharose.
The like results for `CCC(C)(C)NC(=Nc1ccc(C#N)cc1)NCC(=O)O` [Exemple 38, acide N-[N-(1,1-diméthylpropyl)amino(4-cyanophénylimino)méthyl]-2-aminoéthanoïque] were, in that order, 300 and about 300 fois celui du saccharose.
`C[C@H](NC(=Nc1cccc([N+](=O)[O-])c1)NCC(=O)O)c1ccccc1` [Exemple 8, acide N-[N-(S)-α-méthylbenzylamino (3-nitrophénylimino)méthyl] -2-aminoéthanoique] returned a Pouvoir édulcorant in experiment [2] of 6000. Further, the “pouvoir édulcorant, sur une base pondérale” value in experiment [2] (setting [3]) was ~6 000 fois celui du saccharose.
For the compound `N#Cc1ccc(N=C(NCC(=O)O)Nc2cccc3ccccc23)cc1` [Exemple 69, acide N-[N-1-naphtylamino(4-cyanophénylimino)méthyl)-2-aminoéthanoïque], in experiment [2], the Pouvoir édulcorant was 60000. Besides, the “pouvoir édulcorant, sur une base pondérale” value in experiment [2] (setting [3]) was ~60 000 fois celui du saccharose.
Compound `N#Cc1ccc(N=C(NCC(=O)O)NC2CCCCCCCC2)cc1` [Exemple 50, acide N-[N-cyclononylamino(4-cyanophénylimino)méthyl]-2-aminoéthanoïque] had a Pouvoir édulcorant in experiment [2] of 200000. Further, in experiment [2] (setting [3]), the “pouvoir édulcorant, sur une base pondérale” value is reported as ~200 000 fois celui du saccharose.
The corresponding values for `Cc1cccc(NC(=Nc2ccc(C#N)cc2)NCC(=O)O)c1` [Exemple 65, acide N-[N-(3-méthylphényl)amino(4-cyanophénylimino)méthyl]-2-aminoéthanoïque] are 9000 and ~9 000 fois celui du saccharose.

Values taken from EP0241395A2, “Sweeteners derived from n-phenylguanidinoacetic and n-phenylethananamidinacetic acids, and compositions containing such sweeteners” (UNIVERSITE CLAUDE BERNARD - LYON 1, priority 1986, dated 1987).
